Source: article PMC8675869, “Oral Efficacy of a Diselenide Compound Loaded in Nanostructured Lipid Carriers in a Murine Model of Visceral Leishmaniasis” (ACS Infectious Diseases, 2021)
In brackets after ≈: the same amount, converted by molar mass.

Assays:
[1] = design: method as in PMID 25016034; conditions: daily oral administration for 90 days; cited from earlier work
[2] = In vitro hepatic microsomal metabolism; type: in vitro ADME, BALB/c mice; conditions: BALB/c; mouse liver microsomes 0.5 mg protein/mL, 500 μM compound, NADPH, 37 °C; read-out: microsomal stability t1/2 (converted)
Experimental: Liver microsomes were isolated as previously described with minor modifications.[57] Mouse livers were removed and rinsed with 0.9% (w/v) NaCl solution. Then, livers were homogenized in ice-cold 0.25 M sucrose in 0.1 M PBS (pH 7.5). After 20 min of centrifugation at 9000 × g, the supernatant was ultracentrifuged at 100,000 × g for 1 h at 4 °C. The obtained microsome pellet was washed with 0.05 M PBS (pH 7.5) followed by another ultracentrifugation at 100,000 × g for 1 h at 4 °C. Microsomes were resuspended in 20% glycerol–0.1 M PBS and stored at −80 °C until use. Protein concentration was measured by microBCA kit (Thermo Scientific). […] Controls without hepatic cofactor and blanks without compounds were also analyzed. Metabolism was determined at 0, 0.1, 0.25, 0.5, 1, 1.5, and 2 h by the addition of an equal volume of ice-cold ACN, and samples were centrifuged at 9000 × g for 10 min. Supernatants were stored at −20 °C until high liquid performance chromatography (HPLC) quantification analysis at 290 nm, as described in the Supporting Information. Results are expressed as mean ± SD of at least three replicates. […] The rate of microsomal intrinsic clearance (Clint,micr, mL·min^–1·kg^–1) was then calculated following eq 1([27]) [drawing 1] […]
The calculated Clint,micr was used for the prediction of in vivo intrinsic hepatic clearance (Clint) using eq 2 and suitable scaling factors[27] […]

[3] = Solubility in fasted simulated intestinal fluid (FaSSIF); type: physicochemical; conditions: thermodynamic from solid, fasted simulated intestinal fluid pH 6.5, 4 h, r.t., as Se content, read-out: solubility in SSIF
Experimental: This experiment determines the solubility of a solid compound in fasted simulated intestinal fluid (FaSSIF) at pH 6.5 after 4 h of equilibration at r.t.[58] In brief, 1 mL of FaSSIF (3 mM sodium taurocholate and 0.75 mM lecithin in sodium phosphate buffer at pH 6.5) was added to 2 mg of the solid compounds. The resulting suspensions were shaken at 900 rpm for 4 h at r.t. Then, they were centrifuged at 12,600 × g for 10 min. The amount of selenocompounds, as selenium (Se) content, remaining in the supernatant was quantified by graphite atomic absorption spectrometry, as described in the Supporting Information. Results are expressed as mean ± SD of three replicates.

[4] = Ex vivo intestinal permeability (Ussing chamber); type: in vitro ADME, Wistar rats; conditions: rat jejunum, mucosal-to-serosal, as Se content; for Papp at 2 h, 5 mM: female, Wistar, rat, pH 7.4, free compounds; for intestinal permeability Papp: free compounds
Experimental: Intestinal permeation experiments were performed by using the Ussing chamber method as previously described.[59] Wistar female rats were fasted for 16 h with free access to water before the experiment. Rats were anesthetized with isoflurane and sacrificed by cervical dislocation. Jejunum was aseptically extracted, excised in 2 cm segments avoiding Peyer’s patches, and placed in cold 0.9% NaCl solution. Jejunum segments were anchored into the Ussing chambers. All experiments were realized from the apical side or donor compartment (DC) to the basolateral or receptor (RC) direction. For 2h and 2m compounds experiments, 5 mL of deionized water at pH 7.4 containing 4% (w/v) D-α-tocopherol polyethylene glycol 1000 succinate, and 5% (w/v) PEG 400 was added to both compartments to ensure sink conditions. In the case of NLC, 5 mL of PBS was used in both compartments. Chambers were continuously oxygenated and maintained at 37 °C. After 10 min of preincubation, the solution in the DC was replaced by 5 mL of either 2h and 2m solutions (final concentration of 5 mM) or their lyophilized NLC diluted in PBS at a 1 mM (in selenocompound concentration). Samples of 500 μL were collected from the RC every 20 min up to 2 h and replaced by an equal volume of the RC solution. Samples were frozen at −20 °C until analysis. The membrane integrity was evaluated by the addition of yellow lucifer to the DC and the determination of its fluorescence at the end of the experiment.[60] Experiments were carried out in triplicate for each compound and formulation. Se content in the RC was analyzed by flame atomic absorption spectrometry, as explained in the Supporting Information. The apparent permeability coefficient per unit membrane surface area (Papp (cm/s)), expressed as mean ± SD, was calculated according to eq 3 [drawing 3] 3 where dQ/dt was the steady-flux (mg/s), C0 was the initial compound concentration in the DC (mg/mL), and A was the surface area of the membrane (cm^2). It has been stablished that, in general, compounds with Papp > 1 × 10^–6 cm/s are well-absorbed in the human intestinal tract whereas Papp < 1 × 10^–6 cm/s are correlated with poor absorption.[32]

[5] = In vitro release from NLC in SGF and SIF; type: physicochemical; conditions: cumulative Se release
Experimental: The release studies of compounds 2h and 2m were performed at 37 °C using simulated gastric fluid (SGF, pH 1.2, pepsin 0.32% (w/v)) and simulated intestinal fluid (SIF, pH 6.8, pancreatin 1% (w/v)) with 2% v/v PEG 400, 5% w/v D-α-tocopherol polyethylene glycol 1000 succinate and 2.5% v/v DMSO added to ensure sink conditions. The dialysis membranes (with 100 kDa pore size) were filled with 30 mg of lyophilized formulations either 2h-NLC or 2m-NLC (corresponding to around 60 μg of the selenocompounds) dispersed in 1 mL of distilled water. The loaded dialysis membranes were placed into a beaker containing 25 mL of SGF. The simulated fluid was kept under magnetic stirring at 150 rpm, and at fixed times 0.250 mL samples were withdrawn and replaced with an equal volume of SGF. Two hours after the incubation in SGF, the device was transferred to another beaker containing 25 mL of SIF magnetically stirred at 150 rpm. As previously, at fixed times, samples were withdrawn and replaced with free SIF. The in vitro release study finished 24 h after the experiment began. The amount of Se released from the nanocarriers was determined by graphite atomic absorption spectrometry, as described in the Supporting Information. Results are expressed as mean ± SD of at least three replicates.

[6] = Single-dose pharmacokinetic study in mice (plasma Se); conditions: BALB/c, mouse, in vivo, ip, 4 mg/kg
Experimental: A single-dose pharmacokinetic study of 2h, 2m, 2h-NLC, and 2m-NLC were evaluated in mice after i.p. (free drugs) or oral administration (free drugs and loaded into NLC). The dose (4 mg/kg) was selected taking into account LD50 obtained after i.p. administration of the compounds. Blood was collected from the submandibular plexus at different time points: 0, 0.25, 0.5, 1, 2, 4, 8, 24, and 48 h. Collected whole blood samples were centrifuged at 3000 × g for 10 min at 4 °C. The obtained plasma samples were stored at −80 °C until quantification of the drug by graphite atomic absorption spectroscopy, as described in the Supporting Information. Experiments were carried out in triplicate for each compound and formulation. Pharmacokinetic parameters were estimated by fitting the experimental data to a noncompartimental model (NCA) using PKsolver Excel program.[62] The analyzed parameters were as follows: Area under concentration–time curve (AUC), maximum serum concentration (Cmax), clearance (Cl), time of maximum concentration (tmax), mean residence time (MRT), and product half-life (t1/2). The extraction rate (ER) was calculated as the ratio between systemic blood clearance and mouse hepatic blood flow (considered 90 mL·min^–1·kg^–1). […]

[7] = Acute toxicity, Up-and-Down procedure (OECD 425), i.p.; conditions: mouse, in vivo, ip, 17.5 mg/kg, mice
Experimental: Acute toxicity was carried out following the Up-and-Down procedure proposed by the OECD 425.[61] Three mice were treated with a dose of 17.5 mg/kg of each compound, 2h and 2m, administered by i.p. route. If all the mice died, 1/3 of the dose was administered to other new three mice. If all of them survived, the dose was tripled. If one or two of them died, the same dose was administered to one or two mice more. Both compounds were solubilized in PEG 400:H2O:D-α-tocopherol polyethylene glycol 1000 succinate (60:38.4:1.6, v/v/w).

[8] = test system: Salmonella typhimurium (TA1535/pSK1002 strain); test: SOS/UMU genotoxicity test; type: cell-based; conditions: with or without metabolic activation, highest concentration 1 mg/mL
Experimental: Salmonella typhimurium (TA1535/pSK1002 strain) (DSMZ, Germany) was employed to determine the genotoxic potential of the compounds 2h and 2m and some of their possible metabolites, as previously described.[56] Bacteria were exposed to different concentrations of compounds either with or without metabolic activation (S9 mix, Mutazyme) to determine the bacterial survival percentage, calculated by measuring the absorbance at 600 nm. Afterward, the β-galactosidase activity was conducted using a colorimetric method employing o-nitrophenyl-β-D-galactopiranoside (ONPG) as a substrate. Genotoxicity activity was measured in terms of β-galactosidase activity calculating an induction factor (IF) relative to the negative control (i.e., bacteria exposed to the solvent) and positive controls (4-nitroquinoline for normal treatments and 2-aminoantracen for S9 metabolic activated treatments). A compound was considered genotoxic for IF values ≥2 at noncytotoxic concentration (i.e., bacterial survival ≥80%). The experiment was considered valid for positive controls if IF ≥ 2.

[9] = Solubilizing capability of Transcutol for the compounds; type: physicochemical; conditions: Transcutol as solvent
[10] = molecular target: trypanothione reductase (TR); design: method as in PMID 33046492; conditions: concentration that inhibits TR activity by 50%; read-out: TR inhibition IC50; cited from earlier work
THP-1 cells = conditions: read-out: THP-1 cells CC50; concentration that kills cells by 50%; cited from earlier work
[11] = cited from earlier work
[12] = design: method as in PMID 20643750; conditions: mice, administration for 13 weeks; cited from earlier work
[13] = after 4 h of incubation in SIF (following 2 h SGF)
[14] = first 2 h of incubation in SGF, 37 °C, sink conditions

Molecule | no observed adverse effect level (NOAEL) [1] [mg/kg/day] | half-life at 500 μM [2] [h] | solubility at 4 h [3] [µg/mL] | Papp at 2 h, 5 mM [4] [×10⁻⁶ cm/s] | intestinal permeability Papp [4] | compound released from NLC [5, 13] | compound released from NLC [5, 14] [%] | ER (extraction ratio) [6] | LD50 [7] [mg/kg] | genotoxicity (SOS/UMU test) [8] | amount of compound dissolved in Transcutol [9] | IC50 [10] [µM] | CC50 (THP-1 cells) [µM] | logP [11] | NOAEL [12] [g/kg/day]
CCOCCOCCO [Transcutol, diethylene glycol monoethyl ether] | 850 to 1000 | – | – | – | – | – | – | – | – | – | – | – | – | – | –
O=C(Nc1ccc([Se][Se]c2ccc(NC(=O)c3ccco3)cc2)cc1)c1ccco1 [2h, N,N′-(4,4′-diselanediylbis(4,1-phenylene))bis-furan-2-carboxamide] | – | 1.7 | 3.2 ± 1.7 (≈ 6.03 µM) | ~0.717 | 7.2 ± 2.6 (×10^–7) cm/s | around 13% | 5.5 ± 3.1 | <0.3 | 17.5 | did not produce cytotoxicity and DNA damage | up to 6 mg of compound in 0.4 g | 14 ± 0.9 | > 50 | 1 | –
O=C(Nc1ccc([Se][Se]c2ccc(NC(=O)c3cccc4ccccc34)cc2)cc1)c1cccc2ccccc12 [2m, N,N′-(4,4′-diselanediylbis(4,1-phenylene))bisnaphthamide] | – | 1.2 | 2.5 ± 0.5 (≈ 3.84 µM) | ~0.591 | 5.9 ± 1.1 (×10^–7) cm/s | ~10% | 3.9 ± 0.3 | – | 17.5 | did not produce cytotoxicity and DNA damage | up to 6 mg of compound in 0.4 g | 5.5 ± 0.1 | > 50 | 5 | –
Polysorbate 80 [Tween 80] | – | – | – | – | – | – | – | – | – | – | – | – | – | – | 10
